These results are taken from patent publication US10854312B2, “Selective peptide antagonists” (BIONIZ, LLC, priority 2013, dated 2020).

“Also recorded” adds a separate entry of the source. No end group written: not given here.

What all share (type): cell-based
For one experiment, the system named is γc-cytokines. Kind of experiment: Target cytokine spectrum within the γc-family.
A further experiment concerns human IL-2. The experiment in a line: NK92 cell proliferation assay (WST-1), IL-2. Particulars: 24 h. As to the method:
(§1) Human peripheral blood mononuclear cells were purified by the Ficoll-paque gradient centrifugation (GE-Healthcare) and stimulated by PHA (5 μg ml^−1, Sigma) for 48 h, then expanded with IL-2 (0.5 nM, Peprotech) for 48h, and then depleted of non-T cells by the Pan-T cell negative enrichment Ab cocktails (Miltenyi). The purified T cells were then fasted of IL-2 overnight prior to the proliferation assay by the tetrazolium dye method. Four hundred thousand cells (in 200 μl culture) were incubated with the cytokines and BNZ132-1 at the indicated concentrations for 24 h, and 20 μl WST1 reagent (Clontech) was added to each well. After 12 h incubation, OD450 was measured. The assay was performed in triplicate. […] NK 92 cells were cultured in human IL-2. Cells were washed to withdraw IL-2 for overnight and two hundred thousand cells (in 200 μl volume) were incubated with the indicated concentrations of the cytokine and BNZ132-1 for 24 h before 20 μl WST-1 reagent (Clontech) was added to each well to measure proliferative response. Absorbance at 450 nm was read at 6 h after the addition of the WST-1 dye. The assay was performed in triplicate. The assay was performed in triplicate and the figure represents a typical result out of 5 different HAM-TSP patients.
FIG. 8B, and FIG. 8C show the results of NK92 cell proliferation assay. NK92 cells responded to IL-2 and IL-15. […]
For orientation: Formazan colour is commonly taken as a measure of viable cells.

The target of the next experiment is mouse IL-3 (Mus musculus, UniProt P01586). The experiment in a line: PT-18β proliferation assay (3H-thymidine), non-γc cytokine IL-3. Particulars: 1 nM mouse IL-3, 15 μM BNZ132-1.
The subject of another experiment is human IL-21. The experiment in a line: PT-18 h21Rα survival assay (apoptosis by Annexin V staining), IL-21. The conditions noted are these: hIL-21Rα-transfected PT-18 cells, 1 nM human IL-21, 5 μM BNZ132-1, PE-Annexin V flow cytometry. As to the method: FIG. 6A-FIG. 6E presents inhibitory spectrum of BNZ132-1 over γc- and non-γc-cytokines. […] Neutralizing antibodies against each cytokine (R & D systems, 5 μg ml^−1) were included as controls. After 20 h, the cells were pulsed with WST-1 (Clontech) and OD450 of each well was measured after 6 h. A 19-mer scrambled peptide was used as a negative control at 5 μM. The experiments were conducted in triplicate (applies to all experiments in FIG. 6A-FIG. 6E). The result represents one of at least three independent experiments (applies to all experiments in FIG. 6A-FIG. 6E). […] In PT-18 proliferation assay, PT-18β or PT-18h21Rα cells were withdrawn of mouse IL-3 for 12 h before the experiment. Cells were then incubated with 1 nM of mouse IL-4, mouse IL-9, or mouse IL-21 in the presence or absence of the indicated doses (μM) of BNZ132-1. Neutralizing antibodies to each cytokine (5 μg ml^−1, except for anti-mouse IL-21 polyclonal antibody which was used at 15 μg ml−1) and a scrambled control peptide (5 μM) were included as negative controls. WST-1 assay was conducted as described above. […] In PT-18 h21Rα survival assay, PT-18h21Rα cells are described in the text. […] Both parental and hIL-21Rα positive PT-18 cells were washed and incubated without IL-3 for 12 h before the assay. […] The Y-axis represents the cpm (count per minute) values measured by a β-counter. […]
In general terms: Flow cytometry measures light scatter and fluorescence of single cells or particles in a stream.

The next experiment deals with mouse GM-CSF (Mus musculus, UniProt P01587). The experiment in a line: PT-18β proliferation assay (3H-thymidine), non-γc cytokine GM-CSF. The conditions noted are these: 1 nM mouse GM-CSF, 15 μM BNZ132-1.
A further experiment deals with IL-2, -15 and -9. Kind of experiment: Inhibition of IL-2, -15 and -9 in human NK92 cell line and ex vivo human T cells. As to the method:
as §1
Next, the biochemical aspects of the BNZ132-1 inhibition of target cytokines were investigated. […]

mouse GM-CSF, sequence (P01587 18-141): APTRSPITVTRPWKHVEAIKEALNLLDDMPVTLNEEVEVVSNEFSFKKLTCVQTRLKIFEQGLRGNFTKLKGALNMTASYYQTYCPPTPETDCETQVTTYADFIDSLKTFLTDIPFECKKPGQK

As to IKEFLQRFIHIVQSIINTS [BNZ132-1], in the experiment on γc-cytokines (IL-4, IL-7 and IL-21), the γc-cytokines not inhibited entry is reported as “excludes IL-4,-7 or -21”. Moreover, the γc-cytokines inhibited result in the experiment on γc-cytokines (summary statements, BNZ132-2 and -3 data not shown) was “specifically inhibits IL-2, IL-15 and IL-9; also recorded: restricted to IL-2, -15, and -9”. In addition, in the experiment on human IL-2, the “inhibition of IL-2-induced proliferation of NK92 cells” value is reported as “dose-dependent manner; also recorded: dose-dependent inhibition”. The “inhibition of IL-3-induced proliferation of PT-18β cells” value against mouse IL-3 is “did not inhibit; also recorded: no inhibition; also recorded: no inhibition of non-γc cytokines”. For the same sequence, the “inhibition of IL-21-mediated protection from apoptotic death after IL-3 withdrawal” value with human IL-21 was “did not counteract the effect of IL-21; also recorded: not inhibited; also recorded: no inhibition of IL-21”. Besides, the “inhibition of GM-CSF-induced proliferation of PT-18β cells” value at mouse GM-CSF is on record as “did not inhibit; also recorded: no inhibition; also recorded: no inhibition of non-γc cytokines”. The Ki with IL-2, -15 and -9 (approximate, from the inhibitory concentrations (Cheng-Prusoff), read-out: binding affinity of BNZ132-1 to target cells) fell in the range of 10 to 60 nM. The IC50 in the experiment on IL-2, -15 and -9 (human NK92 cell line and ex vivo human T cells, read-out: concentration at which IL-2, -15 and -9 are inhibited) is 50 to 150 nM.
